Key:
CLL cells [1] = test: Cytotoxicity in presence of cross-linking (annexin V/PI); format: cell-based, human; conditions: for cell death (antibody-mediated apoptosis in the presence of cross-linking): rituximab 10 μg/mL + 50 μg/mL anti-Fc
Procedure: Cells (10^6 cells/mL) were treated with commercially purchased alemtuzumab (anti-CD52; Ilex Pharmaceuticals, San Antonio, Tex.), rituximab (anti-CD20; Genentech, San Francisco, Calif.), or trastuzumab (anti-HER2; Genentech) at a concentration of 10 μg/mL. Goat antihuman IgG cross-linker (Fc specific; Jackson ImmunoResearch Laboratories, West Grove, Pa.) was added to the cell suspension 5 minutes after adding the primary antibodies at a concentration of 50 μg/mL.
In addition, samples with no treatment or crosslinker alone were collected at matched time points. Apoptosis of cells at 24 and 48 hours after treatment was measured by annexin V-fluorescein isothiocyanate/propidium iodide (PI) flow cytometry analysis according to the supplier's instructions (BD Biosciences).
Cytotoxicity results were expressed as percentage of total positive cells over untreated control [% positive cells=(% annexin^+ and/or PI^+ cells of treatment group)−(% annexin^+ and/or PI^+ cells of untreated control)].

CLL cells [2] = test: ADCC, 4-hour 51Cr-release assay; format: cell-based, human; conditions: using alemtuzumab, data not shown
Procedure: For ADCC experiments, CD56^+ and CD19^+ cells were negatively purified from whole blood obtained from either healthy volunteers or CLL subjects by magnetic-activated cell sorting according to the manufacturer's recommendations (MiniMACS; Miltenyi Biotec, Auburn, Calif.). The purity of enriched populations was always greater than 95% of the total yield as detected by CD19 and CD3 staining.
ADCC activity was determined by standard 4-hour ^51Cr-release assay. ^51Cr-labeled target cells (10^5 CLL cells/mL) were incubated with media alone or in the presence of various antibodies (10 μg/mL) at 37° C. for 30 minutes. Unbound antibody was washed off and the cells plated at 10^4 cells/well. Effector cells (natural killer [NK] cells from healthy donors or CLL subjects) were then added to the plates at indicated effector-to-target (E:T) ratios. After a 4-hour incubation, supernatants were removed and measured using a gamma counter. The percentage of specific cell lysis was determined by the equation: % lysis=100×(ER−SR)/(MR−SR), where ER, SR, and MR represent experimental, spontaneous, and maximum release, respectively. Data were normalized to the untreated control.

Row | Substance | change in alemtuzumab-mediated apoptosis with lenalidomide treatment (CLL cells [1]; lenalidomide 48 hours, cross-linking, same conditions) | change in ADCC, lenalidomide versus untreated cells (CLL cells [2]) | cell death (antibody-mediated apoptosis in the presence of cross-linking) (CLL cells [1]; lenalidomide-treated CLL cells (48 hours), N=10, P<0.017) | cell death (antibody-mediated apoptosis in the presence of cross-linking) (CLL cells [1]; vehicle-treated CLL cells (48 hours), N=10)
1 | alemtuzumab: anti-CD52 antibody; Ilex Pharmaceuticals | No significant change | no significant change |  | 
2 | rituximab: anti-CD20 antibody; Genentech |  |  | 11% ±8% | 25% ±11%

From patent US20110280913A1, “Methods and Compositions for Delivering Therapeutic Agents in the Treatment of B-Cell Related Disorders” (THE OHIO STATE UNIVERSITY, priority 2008, published 2011)
